In patent US8168821B2, “Cyclopropylacetic acid derivatives and use thereof” (Bayer Pharma Aktiengesellschaft, priority 2005, dated 2012):

How the values were obtained:
saphenous artery rings = assay: Vasorelaxant effect in vitro (phenylephrine-contracted artery rings); design: species or system Rabbits; conditions: rabbit saphenous artery rings, contraction induced by phenylephrine, concentration reducing contraction by 50%
Experimental: Rabbits are anesthetized and sacrificed by intravenous injection of thiopental sodium (about 50 mg/kg) and exsanguinated. The saphenous artery is removed and divided into rings 3 mm wide. The rings are mounted singly on in each case a pair of triangular hooks open at the end and made of 0.3 mm-thick special wire (Remanium®). Each ring is placed under an initial tension in 5 ml organ baths with Krebs-Henseleit solution which is at 37° C., is gassed with carbogen and has the following composition: NaCl 119 mM; KCl 4.8 mM; CaCl2×2H2O 1 mM; MgSO4×7H2O 1.4 mM; KH2PO4 1.2 mM; NaHCO3 25 mM; glucose 10 mM; bovine serum albumin 0.001%. The force of contraction is detected with Statham UC2 cells, amplified and digitized via A/D converters (DAS-1802 HC, Keithley Instruments, Munich) and recorded in parallel on chart recorders. Contractions are induced by addition of phenylephrine.
After several (generally 4) control cycles, the substance to be investigated is added in each further run in increasing dosage, and the height of the contraction achieved under the influence of the test substance is compared with the height of the contraction reached in the last preceding run. The concentration necessary to reduce the contraction reached in the preceding control by 50% is calculated from this (IC50). The standard application volume is 5 μl. The proportion of DMSO in the bath solution corresponds to 0.1%.

[1] = molecular target: T1, Heme-free sGC (recombinant soluble guanylate cyclase) (Rattus norvegicus, UniProt P20595); assay: Stimulation of recombinant soluble guanylate cyclase (sGC) in vitro, heme-free enzyme; format: biochemical; conditions: 10 μM Example 9; heme-free enzyme obtained with 0.5% Tween 20
T1 construct: made in house
T1 sequence (P20595 1-619): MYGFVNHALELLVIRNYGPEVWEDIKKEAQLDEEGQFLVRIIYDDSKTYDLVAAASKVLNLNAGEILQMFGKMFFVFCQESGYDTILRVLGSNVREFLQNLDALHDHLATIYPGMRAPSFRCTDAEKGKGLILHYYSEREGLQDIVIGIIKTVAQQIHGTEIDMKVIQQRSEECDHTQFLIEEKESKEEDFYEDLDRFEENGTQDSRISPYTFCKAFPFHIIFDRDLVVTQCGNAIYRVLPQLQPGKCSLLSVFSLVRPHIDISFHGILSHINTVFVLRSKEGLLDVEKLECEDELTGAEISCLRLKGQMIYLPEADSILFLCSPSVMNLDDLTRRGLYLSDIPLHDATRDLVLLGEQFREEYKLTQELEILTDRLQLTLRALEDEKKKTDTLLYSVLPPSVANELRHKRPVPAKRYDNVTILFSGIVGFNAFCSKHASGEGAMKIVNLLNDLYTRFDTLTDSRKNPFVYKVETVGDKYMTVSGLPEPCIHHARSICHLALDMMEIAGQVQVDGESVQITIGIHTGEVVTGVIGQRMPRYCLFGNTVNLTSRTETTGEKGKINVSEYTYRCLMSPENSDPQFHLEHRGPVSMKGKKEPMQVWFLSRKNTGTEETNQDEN
T1 sequence (P19686 1-690 partner): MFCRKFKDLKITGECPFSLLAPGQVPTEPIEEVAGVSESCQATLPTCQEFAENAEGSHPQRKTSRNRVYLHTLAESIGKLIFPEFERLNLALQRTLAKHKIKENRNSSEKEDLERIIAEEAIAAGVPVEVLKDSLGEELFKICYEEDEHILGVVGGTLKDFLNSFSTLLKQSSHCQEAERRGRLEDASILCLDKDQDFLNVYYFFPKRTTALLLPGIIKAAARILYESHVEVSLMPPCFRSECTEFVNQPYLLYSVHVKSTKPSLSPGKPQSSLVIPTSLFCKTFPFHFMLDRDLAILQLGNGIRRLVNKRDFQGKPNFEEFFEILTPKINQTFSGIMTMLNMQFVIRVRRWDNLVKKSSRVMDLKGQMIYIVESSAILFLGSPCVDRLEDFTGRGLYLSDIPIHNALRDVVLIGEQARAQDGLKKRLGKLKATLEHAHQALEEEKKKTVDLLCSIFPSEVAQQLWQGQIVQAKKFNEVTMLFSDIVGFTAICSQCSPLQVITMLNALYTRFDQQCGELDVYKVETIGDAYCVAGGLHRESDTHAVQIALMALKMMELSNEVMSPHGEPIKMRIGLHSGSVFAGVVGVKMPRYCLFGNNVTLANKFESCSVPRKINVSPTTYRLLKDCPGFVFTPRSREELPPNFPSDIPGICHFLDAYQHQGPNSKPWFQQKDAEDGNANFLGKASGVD
Experimental: Investigations on the stimulation of recombinant soluble guanylate cyclase (sGC) by the compounds according to the invention with and without sodium nitroprusside, and with and without the heme-dependent sGC inhibitor 1H-1,2,4-oxadiazole-(4,3a)-quinoxalin-1-one (ODQ) are carried out by the method described in detail in the following reference: M. Hoenicka, E. M. Becker, H. Apeler, T. Sirichoke, H. Schroeder, R. Gerzer and J.-P. Stasch, “Purified soluble guanylyl cyclase expressed in a baculovirus/Sf9 system: Stimulation by YC-1, nitric oxide, and […]”, J. Mol. Med. 77 (1999), 14-23. The heme-free guanylate cyclase is obtained by adding Tween 20 to the sample buffer (0.5% in the final concentration).
(§1) The activation of sGC by a test substance is reported as n-fold stimulation of the basal activity.

[2] = molecular target: T2, Heme-containing sGC (recombinant soluble guanylate cyclase) (Rattus norvegicus, UniProt P20595); assay: Stimulation of recombinant soluble guanylate cyclase (sGC) in vitro, heme-containing enzyme; format: biochemical
T2 construct: made in house
T2 sequence (P20595 1-619): T1 sequence (P20595 1-619)
T2 sequence (P19686 1-690 partner): T1 sequence (P19686 1-690 partner)
From the text: Hoenicka, E. M. Becker, H. Apeler, T. Sirichoke, H. Schroeder, R. Gerzer and J.-P. Stasch, “Purified soluble guanylyl cyclase expressed in a baculovirus/Sf9 system: Stimulation by YC-1, nitric oxide, and carbon oxide”, J. Mol. Med. 77 (1999), 14-23. The heme-free guanylate cyclase is obtained by adding Tween 20 to the sample buffer (0.5% in the final concentration).
as §1

CC(C)(C)c1ccc(COc2ccccc2/C=C/C(CCc2ccc(C(=O)O)cc2)CCC2(CC(=O)O)CC2)cc1 (racemic) [Example 2, 4-((4E)-5-{2-[(4-tert-Butylbenzyl)oxy]phenyl}-3-{2-[1-(carboxymethyl)cyclopropyl]ethyl}pent-4-en-1-yl)benzoic acid] showed an IC50 (saphenous artery rings; Oryctolagus cuniculus) of 2.9 nM.

CC(C)(C)c1ccc(COc2ccccc2/C=C/C(CCc2ccc(C(=O)O)cc2)CCC2(CC(=O)O)CC2)cc1 (racemic) [Example 3, 4-((4E)-5-{2-[(4-tert-Butylbenzyl)oxy]phenyl}-3-{2-[1-(carboxymethyl)cyclopropyl]ethyl}pent-4-en-1-yl)benzoic acid] was tested, and the IC50 (saphenous artery rings) was 5.8 nM.

With CC(C)(C)c1ccc(COc2ccccc2/C=C/C(CCC2(CC(=O)O)CC2)Cc2ccc(C(=O)O)cc2)cc1 (racemic) [Example 5] the IC50 (saphenous artery rings; Oryctolagus cuniculus) was 58 nM.

Molecule CC(C)(C)c1ccc(COc2ccccc2/C=C/C(CCC2(CC(=O)O)CC2)Cc2ccc(C(=O)O)cc2)cc1 (racemic) [Example 6, 4-((3E)-4-{2-[(4-tert-Butylbenzyl)oxy]phenyl}-2-{2-[1-(carboxymethyl)cyclopropyl]ethyl}but-3-en-1-yl)benzoic acid] has an IC50 (saphenous artery rings) of 33 nM.

Work on O=C(O)CC1(CCC(/C=C/c2ccccc2OCCCCCc2ccccc2)Cc2ccc(C(=O)O)cc2)CC1 (racemic) [Example 8, 4-((3E)-2-{2-[1-(Carboxymethyl)cyclopropyl]ethyl}-4-{2-[(5-phenylpentyl)oxy]phenyl}but-3-en-1-yl)benzoic acid] yielded an IC50 (saphenous artery rings) of 1020 nM.

For O=C(O)CC1(CCC(/C=C/c2ccccc2OCCCCCc2ccccc2)Cc2ccc(C(=O)O)cc2)CC1 (racemic) [Example 9, 4-((3E)-2-{2-[1-(Carboxymethyl)cyclopropyl]ethyl}-4-{2-[(5-phenylpentyl)oxy]phenyl}but-3-en-1-yl)benzoic acid], the “Stimulation (n-fold) of heme-free sGC, Basal” value [1] was 21.0 n-fold, the “Stimulation (n-fold) of heme-containing sGC, Basal” value ([2]; 10 μM Example 9, no addition) was 8.0 n-fold and the “Stimulation (n-fold) of heme-containing sGC, +0.1 μM DEA/NO” value ([2]; 10 μM Example 9 plus 0.1 μM DEA/NO) was 109.2 n-fold. For the same molecule, the “Stimulation (n-fold) of heme-containing sGC, +10 μM ODQ” value ([2]; 10 μM Example 9 plus 10 μM ODQ) was 41.0 n-fold, the “Synergism of combination with NO donor DEA/NO on heme-containing sGC” value ([2]; combination of Example 9 and DEA/NO) was “no synergistic effect” and the “Effect of heme-dependent sGC inhibitor ODQ on sGC activation” value ([2]; with ODQ) was “not blocked”. For the same molecule, the IC50 (saphenous artery rings) was 406 nM.

CCN(CC)[N+]([O-])=NO [DEA/NO, 2-(N,N-diethylamino)diazenolate 2-oxide, reference compound] was tested, and the “Stimulation (n-fold) of heme-containing sGC by DEA/NO alone” value ([2]; 0.1 μM DEA/NO, 0.0 μM Example 9) was 101.0 n-fold.

With O=c1onc2cnc3ccccc3n12 [ODQ, 1H-1,2,4-oxadiazole-(4,3a)-quinoxalin-1-one, reference compound] the “Stimulation (n-fold) of heme-containing sGC with ODQ alone” value ([2]; 10 μM ODQ, 0.0 μM Example 9) was 3.7 n-fold.
